In patent US11453689B2, “3-pyrrolidine-indole derivatives as serotonergic psychedelic agents for the treatment of CNS disorders” (Mindset Pharma Inc., priority 2020, dated 2022):

Columns and labels:
[1] = target: human 5-HT2A (h5-HT2A) receptor (Homo sapiens (Human), UniProt P28223); test: FLIPR calcium assay, human 5-HT2A receptor, agonist mode; format: cell-based
Protocol: I. Assessment of the Activated Effect of Exemplary Compounds of Formula I Targeting on Human 5-HT2A (h5-HT2A) Receptor Under Agonist Mode:
1. Culture the cells in cell culture medium (DMEM containing 10% FBS, 1× penicillin-streptomycin 300 μg/ml G418 and 100 μg/ml hygromycin B) at 37° C., 5% (v/v) CO2.
2. One day before the assays, detach the cell using TrypLE™ Express and count cells using cell counter.
3. Seed 20000 cells/well in 30 μl/well culture medium to a 384-well cell plate and incubate the cells overnight at 37° C., 5% (v/v) CO2.
4. On the assay day, prepare 2×dye solution following the manual of the FLIPR® Calcium 6 Assay Kit: i. Dilute the dye with assay buffer(20 mM HEPES in 1× HBSS, PH7.4); ii. Add probenecid to the final concentration of 5 mM; iii. Vortex vigorously for 1-2 minutes.
5. Medium from cell plate by flicking the cell plate on towel papers.
6. Add 10 μl of assay buffer and 10 μl of 2×dye solution to each well of the cell plate.
7. Put the cell plate on plate shaker, agitate the plate at 600 rpm for 2 minutes. Incubate the plate at 37° C. for 2 hours followed by additional 15-minute incubation at 25° C.
8. Prepare 3×compound in assay buffer: a. Dilute reference compounds to required concentration with DMSO. Add the compounds to a 384-well compound plate; b. Perform serial dilutions; c. Add 10 mM test compounds to the compound plate, perform 3-fold serial dilutions. d. […] Add 20 μl/well assay buffer to the compound plate; f. Mix the plate on plate shaker for 2 mins;
i. The normalized fluorescence reading (RFU) is calculated as shown follow, while Fmax and Fmin stand for maximum and minimum of calcium signal during defined time window: RFU=Fmax−Fmin
ii. Calculate the percentage activation by using following equation: […]
iii. Calculate EC50 by fitting % activation against log of compound concentrations with Hill equation using XLfit.

human 5-HT2A receptor = human 5-HT2A receptor (Homo sapiens (Human), UniProt P28223); test: Radioligand ([3H]-ketanserin) binding assay on human 5-HT2A receptor
Protocol: i. Prepare the assay buffer following the table below;
ii. Preparation of 8 doses of reference and exemplary test compounds starting from 10 mM stock solution as requested by 5-fold serial dilutions with 100%;
iii. […] a. Add 50 μl/well of 0.5% (v/v) PEI to UniFilter-96 GF/B plates. Seal the plates and incubate at 4° C. for 3 hrs; b. After incubation, wash the plates 3 times with ice-cold wash buffer (50 mM Tris, pH7.4);
iv. Preparation of assay plates: a. Dilute cell membrane with assay buffer and add 330 μl/well to 96 round deep well plates to reach a concentration of 20 μg/well; b. Prepare 8 concentrations of reference or exemplary test compounds and add 110 μl/well to 96 round deep well plates; c. Dilute [3H]-ketanserin with assay buffer to 5 nM (5× final concentration) and add 110 μl/well to 96 round deep well plates.
v. Centrifuge the plate at 1000 rpm for 30 secs and then agitate at 600 rpm, R.T. for 5 min.
vi. Seal the plates and incubate the plate at 27° C. for 90 min.
vii. Stop the incubation by vacuum filtration onto GF/B filter plates followed by 4 times washing with ice-cold wash buffer (50 mM Tris, pH7.4).
ix. Seal the filter plates and add 40 μl/well of scintillation cocktail.
x. Read the plate by using a Microbeta2 microplate counter.
For reference and exemplary test compounds, the results are expressed as % Inhibition, using the normalization equation: N=100−100×(U−C2)/(C1−C2), where U is the unknown value, C1 is the average of high controls, and C2 is the average of low controls. The IC50 is determined by fitting percentage of inhibition as a function of compound concentrations with Hill equation using XLfit.

[2] = Rat liver microsomes stability with NADPH; conditions: for half-life at 2 μM / microsomal CLint at 2 μM: male, rat, microsomes; for Remaining Percentage (%) after 60 min, Rat: rat liver microsomes, with NADPH, 2 μM
Protocol: The objective of this study was to estimate in vitro metabolic stability of exemplary compounds in pooled human, male rat and male mouse liver microsomes. The concentrations of exemplary compounds in reaction systems were evaluated by LC-MS/MS for estimating the stability in pooled human, male rat and male mouse liver microsomes. The in vitro intrinsic clearances of test compounds were determined as well.
A master solution in the “Incubation Plate” containing phosphate buffer, ultra-pure H2O, MgCl2 solution and liver microsomes was made according to Table 3. The mixture was pre-warmed at 37° C. water bath for 5 minutes.
40 μL of 10 mM NADPH solution was added to each well. The final concentration of NADPH was 1 mM. The negative control samples were prepared by replacing NADPH with 40 μL of ultra-pure H2O. Samples were prepared in duplicate. Negative controls were prepared in singlet.
The reaction was started with the addition of 4 μL of 200 μM exemplary test compounds or control compounds to each master solution to get the final concentration of 2 μM. This study was performed in duplicate.
Aliquots of 50 μL were taken from the reaction solution at 0, 15, 30, 45 and 60 minutes. The reaction solutions were stopped by the addition of 4 volumes of cold methanol with IS (100 nM alprazolam, 200 nM imipramine, 200 nM labetalol and 2 μM ketoprofen). Samples were centrifuged at 3,220 g for 40 minutes. Aliquot of 90 μL of the supernatant was mixed with 90 μL of ultra-pure H2O and then was used for LC-MS/MS analysis.
LC/MS analysis was performed for all samples from this study using a Shimadzu liquid chromatograph separation system equipped with degasser DGU-20A5R; solvent delivery unit LC-30AD; system controller SIL-30AC; column oven CTO-30A; CTC Analytics HTC PAL System. Mass spectrometric analysis was performed using an Triple Quad™ 5500 instrument.
All calculations were carried out using Microsoft Excel. Peak areas were determined from extracted ion chromatograms. The slope value, k, was determined by linear regression of the natural logarithm of the remaining percentage of the parent drug vs. incubation time curve.
Conversion of the in vitro t1/2 (min) into the in vitro intrinsic clearance (in vitro CLint, in μL/min/mg proteins) was done using the following equation (mean of duplicate determinations): […]

| SMILES | EC50 [1] | IC50 (human 5-HT2A receptor) | half-life at 2 μM [2] | microsomal CLint at 2 μM [2] | Remaining Percentage (%) after 60 min, Rat [2] |
| --- | --- | --- | --- | --- | --- |
| [2H]C([2H])(c1c[nH]c2cccc(O)c12)[C@H]1CCCN1C([2H])([2H])[2H] [Compound I-44, (R)-3-((1-(methyl-d3)pyrrolidin-2-yl)methyl-d2)-1H-indol-4-ol] | < 1 µM | < 0.5 µM | 36.5 min | 38 µL/min/mg | 32.00% |
| [2H]C([2H])([2H])N1CCC[C@@H]1Cc1c[nH]c2cccc(O)c12 [Compound I-2, (R)-3-((1-(methyl-d3)pyrrolidin-2-yl)methyl)-1H-indol-4-ol] | < 1 µM | < 0.5 µM | 37.6 min | 36.8 µL/min/mg | 33.13% |
| [2H]C([2H])(c1c[nH]c2cccc(OC)c12)[C@H]1CCCN1C([2H])([2H])[2H] [Compound I-39, (R)-4-methoxy-3-((1-(methyl-d3)pyrrolidin-2-yl)methyl-d2)-1H-indole] | < 1 µM | 0.5 to 5 µM | 12.2 min | 113 µL/min/mg | 3.34% |
